# Laboratory results as given in patent US20180280329A1, “INHIBITORS OF PLASMINOGEN FOR TREATING, REDUCING OR PREVENTING RADIATION-INDUCED INJURIES” (OMNIO AB, priority 2015, published 2018).
# Experiments:
# plasminogen = biological target: T1, plasminogen (Mus musculus, UniProt P20918); experiment: Burn wound model: plasminogen accumulation in wound skin extracts (ELISA); assay type: in vivo; settings: WT mice, TXA 800 mg/kg injected three times at 8 h intervals, skin at 24 h after wounding, compared to mice treated with PBS
# T1 construct: Burn wounds were introduced to three WT mice and TXA (800 mg/kg) was injected three times at 8 h intervals; from tissue; host or cells: skin of wild-type mice (burn wound), in vivo
# T1 sequence (P20918 20-812 limits assumed): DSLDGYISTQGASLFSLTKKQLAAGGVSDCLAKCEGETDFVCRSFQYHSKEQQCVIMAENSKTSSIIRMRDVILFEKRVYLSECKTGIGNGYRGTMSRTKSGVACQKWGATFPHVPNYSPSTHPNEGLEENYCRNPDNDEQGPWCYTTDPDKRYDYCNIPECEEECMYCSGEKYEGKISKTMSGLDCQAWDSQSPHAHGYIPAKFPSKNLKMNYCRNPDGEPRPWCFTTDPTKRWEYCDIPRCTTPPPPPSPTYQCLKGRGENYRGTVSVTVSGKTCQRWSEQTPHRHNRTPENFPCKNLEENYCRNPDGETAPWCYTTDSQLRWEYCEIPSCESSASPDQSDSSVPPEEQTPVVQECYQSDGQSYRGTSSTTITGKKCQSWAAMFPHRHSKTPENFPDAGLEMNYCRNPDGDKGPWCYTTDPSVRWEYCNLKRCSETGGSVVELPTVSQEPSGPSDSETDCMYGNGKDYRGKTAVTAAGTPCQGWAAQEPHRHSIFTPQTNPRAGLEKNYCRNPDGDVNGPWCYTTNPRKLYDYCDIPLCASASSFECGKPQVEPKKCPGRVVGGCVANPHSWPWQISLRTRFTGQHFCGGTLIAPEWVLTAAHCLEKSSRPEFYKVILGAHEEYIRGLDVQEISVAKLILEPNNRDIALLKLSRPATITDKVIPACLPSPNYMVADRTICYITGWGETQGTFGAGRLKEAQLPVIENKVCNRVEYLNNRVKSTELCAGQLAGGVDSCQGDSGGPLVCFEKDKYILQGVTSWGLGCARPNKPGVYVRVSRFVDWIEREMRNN
# Procedure: Dorsal skin samples from irradiated and not-irradiated control mice were homogenized in a lysis buffer (50 mM Tris-HCl buffer pH 8.0 with 120 mM NaCl, 1 mM EDTA, 6 mM EGTA, 1% NP-40 and 1 mM DTT) supplemented with PhosSTOP phosphatase inhibitors and Complete Ultra mini protease inhibitor cocktail tablets (both from Roche, Basel, Switzerland). The skin extracts were then kept at −20° C. until use. Total protein concentration in the extracts was quantified using Pierce BCA protein assay kit, according to the manufactural instruction (ThermoFisher Scientific, Waltham, U.S.A). Mouse IL-6 and TNF-alpha levels in the extracts were measured using specific ELISA kits from eBioscience (San Diego, U.S.A). Mouse plasminogen was quantified with a mouse plasminogen-specific ELISA (Omnio AB, Umeå, Sweden).
# Mice were anesthetized with Dormicum/Hypnorm and burn wounds were made with a brass stave as described previously (Shen et al. 2012, Blood 119:5879). The mice were given a single injection of Temgesic (Schering-Plough, Brussels, Belgium) the day after burning. All mice were individually caged, and wounds were neither sutured nor dressed.
# Initially, the burn wound model (Shen et al. 2012, Blood 119:5879) was used to test whether TXA has an effect on plasminogen accumulation in the wound. […]
# [1] = test system: radiation-induced dermatitis; experiment: Radiation-induced dermatitis model (15 Gy to dorsal skin), radio-dermatitis documented by photos and scored; assay type: in vivo, mouse; settings: for development and severity of radio-dermatitis: irradiated WT mice
# Procedure: Dorsal skin of mice had been shaved 3 days prior to irradiation. For the irradiation, the mice were anesthetized by intraperitoneal injection of 150 μl mixture containing Ketaminol vet. (Intervet AB, Sollentuna, Sweden) and Dormitor vet. (Orion Pharma AB, Espoo, Finland). Mice were laid into a lead box to protect the whole body from irradiation, while the dorsal skin was gently stretched out through a 4 cm-long gap in the bottom of the box and maintained with medical tape. Irradiation box with a mouse was then placed in Gammacell 40 exactor (Ashford, UK) that has two Caesium-137 sources. Irradiation was given as a single dose of 1 Gy per minute over 15 min (total dose 15 Gy).
# Digital photographs of the dorsal skin were taken on the specified days after irradiation. The wound size was quantified using Image J (National Institute of Mental Health, Bethesda, Md.). Severity of radio-dermatitis was scored, with the scores defined as: 0=normal, 1=erythema, 2=desquamation, 3=ulcer.
# WT and plg^+/− were intraperitoneally injected with 800 mg/kg of TXA in PBS three times per day. The injections started 2 days before the irradiation and continued for 15 days after the irradiation. Development of dermatitis was documented by digital photos and skin samples were analyzed as described in Example 2.
# (§1) In this experiment, mice were treated as in Example 3, with the exception that TXA was given in drinking water in dose 700 mg/kg/day. Real-time PCR was performed as described in Example 3.
# IL-1β = experiment: Quantitative RT-PCR of irradiated skin: IL-1β mRNA; assay type: in vivo, mouse; settings: irradiated WT mice, TXA in drinking water, day 9 after irradiation
# Procedure: (§2) Skin samples were homogenized in TRIzol (Ambion) using Precellys CK28R tubes on a Precellys 24 homogenizer (both from Bertin Technologies, France) according to the manufacturer's instructions. Total RNA was extracted with PureLink RNA Mini Kit (Ambion) according to the manufacturer's instruction. 2.5 μg of total RNA was reverse transcribed using Superscript VILO cDNA synthesis kit (Invitrogen) and diluted 3 fold with DEPC-water. Expression of genes were analyzed using quantitative real-time PCR with Comparative CT method and with TBP mRNA as the internal reference gene. The gene-specific primers and probes (TaqMan Gene Expression Assays) were from Applied Biosytems, and 2× SsoAdvanced Universal Probes Supermix was from BIO-RAD. Each sample was run in triplicate on StepOnePlus Instrument (Applied Biosystems) using real-time PCR cycling conditions for 2× SsoAdvanced Universal Probes Supermix.
# as §1
# IL-6 = experiment: Quantitative RT-PCR of irradiated skin: IL-6 mRNA; assay type: in vivo, mouse; settings: irradiated WT mice, TXA in drinking water, day 9 after irradiation
# Procedure: as §2, §1
# TGF-β = experiment: Quantitative RT-PCR of irradiated skin: TGF-β mRNA; assay type: in vivo, mouse; settings: irradiated WT mice, TXA in drinking water, day 9 after irradiation
# Procedure: as §2, §1
# PAI-1 = experiment: Quantitative RT-PCR of irradiated skin: PAI-1 mRNA; assay type: in vivo, mouse; settings: irradiated WT mice, TXA in drinking water, day 9 after irradiation
# Procedure: as §2, §1
smiles,measurement,setting,value
"NC[C@H]1CC[C@H](C(=O)O)CC1 [TXA, trans-4 (aminomethyl) cyclohexanecarboxylic acid]",inhibition of plasminogen accumulation in wounds,plasminogen,50%
same,development and severity of radio-dermatitis,"[1]; TXA 800 mg/kg intraperitoneally three times per day, from 2 days before to 15 days after irradiation, vs carrier",delayed development of dermatitis and with a lower severity
same,development and severity of radio-dermatitis,"[1]; TXA in drinking water 700 mg/kg/day, vs control WT mice treated with water only",significant delay in development of radio-dermatitis and a lower severity of skin damage
same,development of radio-dermatitis,"[1]; irradiated plg+/- mice, TXA 800 mg/kg intraperitoneally three times per day, from 2 days before to 15 days after irradiation",completely blocked
same,formation of radiodermatitis,"[1]; irradiated plg+/- mice, TXA in drinking water 700 mg/kg/day",totally inhibited formation of radiodermatitis
same,level of IL-1β expression in skin,IL-1β,very low
same,expression of IL-6 in skin,IL-6,decreased expression
same,expression of TGF-β in skin,TGF-β,decreased expression
same,expression of PAI-1 in skin,PAI-1,decreased expression
